Measured values as given in US8211646B1, “Methods of treating ovarian cancer by modulating SnoN” (University of South Florida, priority 2008, dated 2012).
Peptide text beside a SMILES is read from it. * marks the point of attachment. Cbz = O=C(OCc1ccccc1)*; CH2F = FC*

What was measured:
Type in all cases: cell-based
SnoN = test: Western analysis of SnoN protein levels
Description: (§1) Proteins were resolved on an 8%, 12%, or 15% SDS-PAGE gel (as appropriate) and electrophoretically transferred to polyvinyldifluoride (PVDF) membranes. After blocking with 5% (w/v) milk in TBST (Tris-Buffered Saline containing 0.1% Tween-20) for one hour at room temperature, membranes were incubated with primary antibodies (at appropriate dilution) overnight at 4° C., followed by extensive washing and incubation for 1 hour with the appropriate horseradish peroxidase-conjugated secondary antibodies (BioRad, Hercules, Calif.). Blots were washed extensively. A rabbit polyclonal EVI1 antibody was obtained (1:3000 dilution, St. Jude's Children's Hospital, Memphis, Tenn.). SnoN rabbit polyclonal (1:1000 dilution), PML, and p21 SMURF2 rabbit polyclonal (1:500 dilution), MRP1 mouse monoclonal (1:500 dilution) and GAPDH mouse monoclonal (1:250 dilution) antibodies were obtained from Santa Cruz Biotechnology (Santa Cruz, Calif.). TGFβRII rabbit polyclonal (1:1000 dilution) antibody was obtained from Strategic Diagnostics (Newark, Del.). Smad2/3 rabbit polyclonal (1:1000 dilution), Beclin-1 rabbit polyclonal (1:1000 dilution), AKT rabbit polyclonal (1:1000 dilution), TAK1 rabbit polyclonal (1:1000 dilution), PARP rabbit polyclonal (1:1000 dilution), Beclin-1 rabbit polyclonal (1:1000 dilution), caspase-3 rabbit polyclonal (1:1000) which detects the pro-caspase form, and ATG5 rabbit polyclonal (1:1000 dilution), LC3-II rabbit polyclonal (1:1000 dilution) antibodies were obtained from Cell Signaling Technology (Danvers, Mass.). The HSP27 mouse monoclonal (1:1000 dilution) antibody was obtained from Stressgen (Ann Arbor, Mich.). Blots were developed using chemiluminescence substrates (Amersham Piscataway, N.J. or BioRad, Hercules, Calif.). Monoclonal PAI-1 antibody was obtained from BD Pharmingen. PSMAD2, total SMAD2/3, p-ERK, p-AKT, and total AKT antibodies were obtained from Cell Signaling Technology. A monoclonal antibody against Arkadia was obtained from Abnova (Taiwan).
(§2) Densitometric analysis was performed using the HP Scanjet 5590 and the Image J program (Image Processing and Analysis in Java, NIH Image Software). Bands were selected and the intensity values were normalized to those for GAPDH. The values are presented as fold-changes relative to control siRNA treated cells.
The clinical inhibitors As2O3, geldanamycin (17-AAG) (dissolved in dimethylsulfoxide [DMSO]), and MG132 (dissolved in DMSO) were obtained from Sigma-Aldrich (St. Louis, Mo.), Fisher Scientific (Pittsburgh, Pa.), and Alexis Biochemicals (Farmingdale, N.Y.), respectively. N-acetyl-L-cysteine (NAC; dissolved in media) and Bortezomib (PS-341; dissolved in DMSO) were obtained from Fisher Scientific. 3-Methyladenine (3-MA; dissolved in media) was obtained from MP Biomedicals (Solon, Ohio). Tiron (4,5-Dihydroxy-1,3-benzenedisulfonic acid, dissolved in media) was obtained from Fisher Scientific. zVAD-fmk (dissolved in DMSO) and bafilomycin A (dissolved in DMSO) was obtained from Axxora LLC (San Diego, Calif.). Bovine catalase was obtained from Sigma-Aldrich. HBED and Mn TBAP was obtained from ENZO Life Sciences (Farmingdale, N.Y.). Ovarian cells were plated in 6-well plates at 250,000 cells per well and grown in complete medium. […] For control cells, DMSO (a final concentration of <0.5%) was added to compare appropriately to drugs dissolved in DMSO. After the appropriate incubation time (6 or 18 hours), cell lysates were collected, protein quantified, and SDS-PAGE/western analysis was performed. In addition, for selected studies, RNA was isolated, quantified, and used for qPCR analysis.

[1] = tested on: EVI1 forms (MDS1/EVI1, EVI1, EVI1^Del190-515)
Description: as §1, §2
(§3) The clinical inhibitors As2O3, geldanamycin (17-AAG) (dissolved in dimethylsulfoxide [DMSO]), and MG132 (dissolved in DMSO) were obtained from Sigma-Aldrich (St. Louis, Mo.), Fisher Scientific (Pittsburgh, Pa.), and Alexis Biochemicals (Farmingdale, N.Y.), respectively. N-acetyl-L-cysteine (NAC; dissolved in media) and Bortezomib (PS-341; dissolved in DMSO) were obtained from Fisher Scientific. 3-Methyladenine (3-MA; dissolved in media) was obtained from MP Biomedicals (Solon, Ohio). Tiron (4,5-Dihydroxy-1,3-benzenedisulfonic acid, dissolved in media) was obtained from Fisher Scientific. zVAD-fmk (dissolved in DMSO) and bafilomycin A (dissolved in DMSO) was obtained from Axxora LLC (San Diego, Calif.). Bovine catalase was obtained from Sigma-Aldrich. HBED and Mn TBAP was obtained from ENZO Life Sciences (Farmingdale, N.Y.). Ovarian cells were plated in 6-well plates at 250,000 cells per well and grown in complete medium. The following day, the cells were treated with 5 μM MG132, As2O3 (between 2-50 μM), 17-AAG (between 2-50 μM), NAC (Fisher Scientific, between 25 μM to 1 mM), Tiron (between 25 μM to 1 mM), 3-MA (0.1 mM to 10 mM), or zVAD-fmk (25 μM to 100 μM). For control cells, DMSO (a final concentration of <0.5%) was added to compare appropriately to drugs dissolved in DMSO. After the appropriate incubation time (6 or 18 hours), cell lysates were collected, protein quantified, and SDS-PAGE/western analysis was performed. In addition, for selected studies, RNA was isolated, quantified, and used for qPCR analysis.

[2] = tested on: TAK1, SMAD2/3, TGFβRII, AKT, phospho-SMAD2; test: Western analysis of other TGFβ signaling mediators
Description: as §1, §2, §3

ovarian cancer cells = test: Cell titer glo cell viability assay; details: 25 μM, 18 hour treatment, relative to control cells
Description: Measurement of Intracellular ATP Levels. T80, HEY, and SKOV3 ovarian cells were seeded in triplicate for each treatment group at 5000 cells per well into each well of a 96 well white-opaque plate. Following overnight cell attachment, cells were treated for 18 hours with appropriate doses of arsenic trioxide or geldanamycin (0 mM, 2 μM, 5 μM, 10 μM, 25 μM, and 50 μM). Following termination of the cell treatments, the media was removed from the wells and replaced with 100 μl of phosphate-buffered saline (PBS). The plate was equilibrated to room temperature, 100 μl of Cell-Titer Glo reagent (Promega, Madison, Wis.) was added, and mixed on a plate shaker for 2 minutes. The plate was further incubated for 10 minutes at room temperature prior to reading with a Biotek luminescence plate reader to obtain relative light unit (RLU) measurements. Empty wells (containing no cells) were utilized as a correction for background luminescence. All experiments were performed in triplicate.

cleaved PARP = test: Western analysis of PARP cleavage (early apoptosis marker); details: HEY; for PARP cleavage in As2O3-treated cells with added inhibitor: 18 hours
Description: as §1, §2, §3

[3] = tested on: LC3-I/LC3-II, autophagosomes; test: Autophagy: LC3 western, EGFP-LC3 fluorescence, TEM of autophagosomes; details: HEY, 18 hours
Description: as §1
HEY cells were seeded onto glass coverslips and allowed to adhere following overnight incubation. The cells were then transiently transfected with EGFP-LC3 (Addgene, Cambridge, Mass.) and allowed to recover for 24 hours. The cells were treated at the appropriate concentrations of As2O3 in the absence or presence of 3-MA (5 and 10 mM), for 18 hours. The cells were then fixed in 4% paraformaldehyde in PBS for 30 minutes at room temperature, washed twice in PBS, and blocked for 1 hour at room temperature in PBS containing 5% goat serum and 0.1% Triton X-100. The cells were counterstained with Hoescht nuclear stain, washed 3 times for 5 minutes in PBS, anti-Fade containing DAPI nuclear stain was then applied, and coverslips mounted onto glass slides and viewed under a Zeiss inverted fluorescence microscope (Moffitt Cancer Center Microscopy Core).
Autophagy induction was analyzed using electron microscopy. […] Cells were then fixed in 2.5% glutaraldehyde in 0.1M phosphate buffer overnight at 4° C. Following rinsing in buffer, cells were scraped from the culture flasks, washed, and then post-fixed in 1% osmium tetroxide in buffer. After dehydration in a graded series of acetone, the cells were embedded in Embed 812 epoxy resin. Thin sections (70 nm) were cut on an Ultramicrotome. The sections on the grids were stained with uranyl acetate and lead citrate. The sections were examined on a Transmission Electron Microscope (Morgagni 268D).

HSP27 = test: Western analysis of HSP27; details: HEY, 18 hours
Description: as §1, with “The HSP27 mouse monoclonal (1:1000 dilution) antibody was obtained from Stressgen (Ann Arbor, Mich.). Blots were developed using chemiluminescence substrates (Amersham Piscataway, N.J. or BioRad, Hercules, Calif.). Monoclonal PAI-1 antibody was obtained from BD Pharmingen. PSMAD2, total SMAD2/3, p-ERK, p-AKT, and total AKT antibodies were obtained from Cell Signaling Technology. A monoclonal antibody against Arkadia was obtained from Abnova (Taiwan).” left out
(§4) The clinical inhibitors As2O3, geldanamycin (17-AAG) (dissolved in dimethylsulfoxide [DMSO]), and MG132 (dissolved in DMSO) were obtained from Sigma-Aldrich (St. Louis, Mo.), Fisher Scientific (Pittsburgh, Pa.), and Alexis Biochemicals (Farmingdale, N.Y.), respectively. […] After the appropriate incubation time (6 or 18 hours), cell lysates were collected, protein quantified, and SDS-PAGE/western analysis was performed. In addition, for selected studies, RNA was isolated, quantified, and used for qPCR analysis.

SnoN RNA = test: qPCR of SnoN RNA levels in ovarian cell lines; set-up: reduction of basal SnoN RNA levels / effect on basal SnoN RNA levels: unit of the concentration uncertain
Description: RNA was isolated using the RNeasy Mini Kit (Qiagen, Valencia, Calif.) from normal, benign, stage I-IV ovarian patient samples and quantitative PCR was performed. A one-step RT-PCR Taqman master mix from Applied Biosystems (Foster City, Calif.) and primers for genes in the 3q26.2 amplicon were obtained using Genebank sequences as well as from Assays on Demand (Hs00180524_m1 (SnoN/SkiL)), with the following primers and probe sets.
Primers/probe sequences for SnoN (Hs00180524_m1), TGFβRII (Hs00234253_m1), and LC3 (Hs00261291_m1) were obtained from Applied Biosystems (Assays by Design).
mRNA levels were determined using the One-Step-Plus Applied Biosystems Detection System or ABI PRISM 7700 Sequence Detection System using β-actin as a reference. PCR conditions were as follows: stage I: 48° C. for 30 min; stage II: 95° C. for 10 min; stage III: [40 cycles] 95° C. for 15 s followed by 60° C. for 1 min Using the correlative method, RNA-fold change in expression was calculated as Ct of gene—Ct of β-actin to generate ΔCt from which ΔCt of the normal sample was subtracted. These values were then converted to log2 values.
as §4, with “respectively. N-acetyl-L-cysteine (NAC; dissolved in media) and Bortezomib (PS-341; dissolved in DMSO) were obtained from Fisher Scientific. 3-Methyladenine (3-MA; dissolved in media) was obtained from MP Biomedicals (Solon, Ohio). Tiron (4,5-Dihydroxy-1,3-benzenedisulfonic acid, dissolved in media) was obtained from Fisher Scientific. zVAD-fmk (dissolved in DMSO) and bafilomycin A (dissolved in DMSO) was obtained from Axxora LLC (San Diego, Calif.).” for “respectively.”

[4] = HEY and OVCA429, 18 hours, increasing doses

17-allylaminogeldanamycin [17-AAG]
SnoN/SkiL protein levels (SnoN; [4]): slight decrease | MDS1/EVI1 and EVI1^Del190-515 protein ([1]; 5 μM 17-AAG, 18 hour): reduced | wild type EVI1 protein ([1]; 5 μM 17-AAG, 18 hour): not dramatically affected | protein levels of EVI1 forms [1, 4]: slight decrease | TGFβRII, SMAD2/3, and AKT protein [2, 4]: more marked reductions | reduction of cell growth (cellular viability) (ovarian cancer cells): 63%

Cn1cnc(N)c2ncnc1-2 [3-MA, 3-Methyladenine]
SnoN levels in As2O3-treated cells with added inhibitor (SnoN; HEY, 18 hours): not dramatically altered | PARP cleavage in As2O3-treated cells with added inhibitor (cleaved PARP): further increased | LC3 levels (LC3-II/LC3-I) in As2O3-treated cells with added inhibitor [3]: reduced | HSP27 levels in As2O3-treated cells with added inhibitor (HSP27): reduced dramatically

CO/C1=C\C(C)=C\[C@@H](C)[C@@H](O)[C@@H](C)C/C(C)=C/C=C/[C@H](OC)[C@@H]([C@@H](C)[C@@H](O)[C@H](C)[C@@]2(O)C[C@@H](O)[C@H](C)[C@@H](C(C)C)O2)OC1=O [Bafilomycin A1]
SnoN levels in As2O3-treated cells with added inhibitor (SnoN; HEY, 18 hours): slightly reduced | PARP cleavage in As2O3-treated cells with added inhibitor (cleaved PARP): increased | LC3 levels (LC3-II/LC3-I) in As2O3-treated cells with added inhibitor [3]: increased

O=c1cc(N2CCOCC2)oc2c(-c3ccccc3)cccc12 [LY294002]
reduction of basal SnoN RNA levels (SnoN RNA; 50 (unit uncertain), 12 h post-treatment, OVCA429, HEY, T29, T80): 50%

CC(=O)N[C@@H](CS)C(=O)O [NAC, N-acetyl-L-cysteine]
SnoN expression in As2O3-treated cells with increasing doses of NAC (SnoN; HEY, 18 hours): markedly reduced | EVI1, TAK1, and TGFβRII protein expression in As2O3-treated cells with NAC ([2]; HEY, 18 hours): recovery

CC(C)C[C@H](NC(=O)[C@H](Cc1ccccc1)NC(=O)c1cnccn1)B(O)O [PS-341, Bortezomib]
SnoN protein in drug-treated cells with added proteosome inhibitor (SnoN; combination with As2O3): further increased | EVI1 protein in As2O3-treated cells with added proteosome inhibitor ([1]; combination with As2O3, HEY, OVCA429): recovered | TGFβRII protein in drug-treated cells with added proteosome inhibitor ([2]; combination with As2O3 (MG132: 6 hour drug treatment)): did not appear to be recovered

N#CC(=C(/N)Sc1ccccc1N)/C(C#N)=C(\N)Sc1ccccc1N [U0126]
effect on basal SnoN RNA levels (SnoN RNA; 25 (unit uncertain), data not shown): not significant

COC(=O)C[C@H](NC(=O)[C@H](C)NC(=O)[C@@H](NC(=O)OCc1ccccc1)C(C)C)C(=O)CF [zVAD-fmk] (Cbz-Val-Ala-Asp(OMe)-CH2F)
SnoN levels in As2O3-treated cells with added inhibitor (SnoN; HEY, 18 hours): remained unchanged | PARP cleavage in As2O3-treated cells with added inhibitor (cleaved PARP): dramatically reduced | LC3 levels (LC3-II/LC3-I) in As2O3-treated cells with added inhibitor [3]: remained unchanged | HSP27 levels in As2O3-treated cells with added inhibitor (HSP27): slightly decreased

EVI1 siRNA: Dharmacon custom siRNA against EVI1 Exon VII, SEQ ID 6 (ACUACGUCUUCCUUAAAUAUU; listed as RNA, chemistry not given here)
reduction of SnoN levels (SnoN; absence and presence of As2O3 (6 and 18 h, 50 μM), HEY): > 50% | effect on As2O3-induced PARP cleavage (cleaved PARP; As2O3-treated): did not dramatically alter

TGF-β
SnoN protein levels in ovarian cancer cells (SnoN; SKOV3, OVCA429, OVCAR8, HEY, between 1 and 3 h post stimulation): dramatic increase | SnoN protein levels in immortalized normal ovarian epithelial cells (SnoN; T29 and T80, between 15 min and 1 h post-TGF-β stimulation (50 pM)): dramatic decrease | phospho-SMAD2 levels ([2]; 1 h post stimulation, T29, T80, SKOV3, HEY, OVCA429, OVCAR8): markedly elevated
